Data on 17 compounds can be found in US7002015B2, “3-Thia-4-arylquinolin-2-one derivatives as smooth muscle relaxants” (Bristol-Myers Squibb Company, priority 2003, dated 2006).

Holding throughout (type): cell-based
In assay [1] the test system is rabbit corpus cavernosum tissue. As to the kind of experiment: Rabbit corpus cavernosum strips: relaxation of phenylephrine-induced force. As to conditions: Oryctolagus cuniculus, inhibition of phenylephrine (3 μM)-induced force as compared to vehicle control, read-out: % Inhibition of force (RCC strips). As for the experimental part: The ability of the compounds of the invention to relax rabbit corpus cavernosum tissue as a model for the treatment of erectile dysfunction is described as follows. New Zealand white rabbits (3.4–3.7 kg) were euthanized by sodium pentobarbital (100 mg/kg) overdose. The penis from each animal was rapidly removed and immersed in a cold oxygenated modified Krebs Henseleit bicarbonate buffer. The penis' outer tunica was removed and the corpus cavernosum smooth muscle obtained and cut into strips approximately 3–5 mm long. The strips were suspended in tissue baths containing physiological salt solution (see above), and allowed to equilibrate for at least one hour under resting tension of 1.0 gram. Isometric force was measured as described above. Tissue strips were stimulated with the α-agonist phenylephrine (3 μM) and allowed to reach a steady level of force prior to the addition of test compounds. The results are expressed as the percentage inhibition of phenylephrine-induced force as compared to vehicle control.

Assay [2] has as its system cloned mammalian (mSlo or hSlo) BK. As to the kind of experiment: Assay for BK channel openers: two-electrode voltage clamp of BK-mediated outward current in Xenopus oocytes. Particulars: percent of control IBTX-sensitive current at +140 mV; 20 μM (or as otherwise indicated); 5–10 oocytes. As for the experimental part:
The ability of the compounds of the invention to open BK channels and increase whole-cell outward (K^+) BK-mediated currents was assessed under voltage-clamp conditions by determining their ability to increase cloned mammalian (mSlo or hSlo) BK-mediated outward current heterologously expressed in Xenopus oocytes [Butler, A., et al., Science 1993, 261, 221–224; Dworetzky, S. I., et al., Mol. Brain Res. 1994, 27, 189–193; Gribkoff, V. K., et al., Mol. Pharmacol. 1996, 50, 206–217]. The two BK constructs employed represent nearly structurally identical homologous proteins, and have proven to be pharmacologically indistinguishable in our tests. To isolate BK current from native (background, non-BK) current, the specific and potent BK channel-blocking toxin iberiotoxin (IBTX) [Galvez, A., et al., J. Biol. Chem. 1990, 265, 11083–11090] was employed at a supramaximal concentration, e.g., 50–100 nanomolar (“nM”). The relative contribution of BK channel-mediated current to total outward current was determined by subtraction of the current remaining in the presence of IBTX (non-BK current) from the current profiles obtained in all other experimental conditions (control, drug, and wash) [Gribkoff, V. K. et al., Mol. Pharmacol. 1996, 50, 206–217]. […] All compounds were tested in 5–10 oocytes and are reported at the indicated concentration of 20 micromolar (“μM”) (or as otherwise indicated); the effect of the selected compounds of the invention on BK current was expressed as the percent of control IBTX-sensitive current at a single transmembrane voltage (+140 mV) and is listed in Table 1. Recordings were accomplished using standard two-electrode voltage clamp techniques [Stuhmer, W., et al., Methods in Enzymology, 1992, 207, 319–339]; voltage-clamp protocols consisted of 500–750 milliseconds (“ms”) duration step depolarizations, from a holding potential of −60 mV, to a final voltage up to +140 mV in 20 mV steps. The experimental media (modified Barth's solution) consisted of millimolar (“mM”): NaCl (88), NaHCO3 (2.4), KCl (1.0), HEPES (10), MgSO4 (0.82), Ca(NO3)2 (0.33), CaCl2 (0.41); pH 7.5.

Assay [3] relates to rat small intestine tissue. As to the kind of experiment: Rat small intestine (ileum) segments: inhibition of nifedipine-sensitive force. Also noted: concentration or dose not given beside the values. As to conditions: integral of nifedipine-sensitive force pre- and 30 min post-compound. The text has this: The ability of the compounds of the invention to relax rat small intestine tissue as a model for the treatment of irritable bowel syndrome is described as follows. Male rats (Harlan, Sprague Dawley, 250–350 g) were sacrificed by decapitation. A portion of small intestine (ileum) was removed and the attached connective tissues and intestinal contents removed. The ileum was cut into segments of ≦1 cm in length. The segments were mounted longitudinally between fixed hooks in organ baths containing warm (37° C.) physiological salt solution (composition in mM: NaCl 118.4, KCl 4.7, KH2PO4 1.2, MgSO4 1.2, CaCl2 1.8, Glucose 10.1, NaHCO3 25; gassed with 95% O2/5% CO2, pH 7.4). A stable tension of ˜1.5 g was maintained in the tissue segments during the equilibration period of 45 minutes. Changes in muscle tension were measured with isometric force transducers (Grass, FT-03C) and recorded using AcqKnowledge data acquisition system (AcqKnowledge for MP100WS, Biopac Systems Inc., Goleta, Calif.). Compound or vehicle was added in the baths for 30 minutes. “Zero” active force was established at the end of the experiment using nifedipine (20 μM). The effects of compounds or vehicle on force was determined by measuring the integral of nifedipine-sensitive force (including resting tone and spontaneous contractions) pre- and 30 min post-compound (or vehicle) addition. Results are expressed as the percentage inhibition of force. DMSO vehicle inhibited force (integral) by −0.6±3.0% (n=25).

The structures appear in SMILES notation.

Turning to `O=C(CCN1CCCC1)CSc1c(-c2cc(Cl)ccc2O)c2cc(C(F)(F)F)ccc2[nH]c1=O` [Example 2, 4-(5-Chloro-2-hydroxy-phenyl)-3-(2-oxo-4-pyrrolidin-1-yl-butylsulfanyl)-6-trifluoromethyl-1H-quinolin-2-one], in assay [1], the inhibition turned out to be 30%. Moreover, the “% MaxiK opening*” value in assay [2] was found to be 335%. In the case of `CN1CCN(CCC(=O)CSc2c(-c3cc(Cl)ccc3O)c3cc(C(F)(F)F)ccc3[nH]c2=O)CC1` [Example 3, 4-(5-Chloro-2-hydroxy-phenyl)-3-[4-(4-methyl-piperazin-1-yl)-2-oxo-butylsulfanyl]-6-trifluoromethyl-1H-quinolin-2-one], the “% MaxiK opening*” value in assay [2] came out at 550%. Take `CN(C)C1CCN(C(=O)CSc2c(-c3cc(Cl)ccc3O)c3cc(C(F)(F)F)ccc3[nH]c2=O)CC1` [Example 5, 4-(5-Chloro-2-hydroxy-phenyl)-3-[2-(4-dimethylamino-piperidin-1-yl)-2-oxo-ethylsulfanyl]-6-trifluoromethyl-1H-quinolin-2-one]: in assay [1], the inhibition turned out to be 34.5%. Moreover, in assay [2], the “% MaxiK opening*” value came to 286%. In assay [3], the “% Inhibition of force (RSI strips)” value was determined as 58.5%.

As to `O=C(CCN1CCCCC1)CSc1c(-c2cc(Cl)ccc2O)c2cc(C(F)(F)F)ccc2[nH]c1=O` [Example 7, 4-(5-Chloro-2-hydroxyphenyl)-3-[[2-oxo-4-(1-piperidinyl)butyl]thio]-6(trifluoromethyl)-2(1H)-quinolinone], the “% MaxiK opening*” value in assay [2] amounted to 199%. Besides, in assay [3], the “% Inhibition of force (RSI strips)” value came out at 29%. On to `O=C(CCN1CCN(CCO)CC1)CSc1c(-c2cc(Cl)ccc2O)c2cc(C(F)(F)F)ccc2[nH]c1=O` [Example 21, 4-(5-Chloro-2-hydroxyphenyl)-3-[[4-[4-(2-hydroxyethyl)-1-piperazinyl]-2-oxobutyl]thio]-6-(trifluoromethyl)-2(1H)-quinolinone], for which the “% MaxiK opening*” value in assay [2] was 241%. Take `O=C(CCN1CCC(O)CC1)CSc1c(-c2cc(Cl)ccc2O)c2cc(C(F)(F)F)ccc2[nH]c1=O` [Example 30, 4-(5-Chloro-2-hydroxyphenyl)-3-[[4-(4-hydroxy-1-piperidinyl)-2-oxobutyl]thio]-6-(trifluoromethyl)-2(1H)-quinolinone]: the “% MaxiK opening*” value in assay [2] worked out at 235%.

Turning to `CN(C)CCCN(C)CCC(=O)CSc1c(-c2cc(Cl)ccc2O)c2cc(C(F)(F)F)ccc2[nH]c1=O` [Example 35, 4-(5-Chloro-2-hydroxyphenyl)-3-[[4-[[3-(dimethylamino)propyl]methylamino]-2-oxobutyl]thio]-6-(trifluoromethyl)-2(1H)quinolinone], the “% MaxiK opening*” value in assay [2] is on record as 178%. Turning to `CC(=O)N1CCN(CCCC(=O)CSc2c(-c3cc(Cl)ccc3O)c3cc(C(F)(F)F)ccc3[nH]c2=O)CC1` [Example 63, 1-Acetyl-4-[5-[[4-(5-chloro-2-hydroxyphenyl)-1,2-dihydro-2-oxo-6-(trifluoromethyl)-3-quinolinyl]thio]-4-oxopentyl]piperazine], the “% MaxiK opening*” value in assay [2] is listed as 284%. With `CC1CCCN(CCCC(=O)CSc2c(-c3cc(Cl)ccc3O)c3cc(C(F)(F)F)ccc3[nH]c2=O)C1` (stereo not drawn) [Example 65, 4-(5-Chloro-2-hydroxyphenyl)-3-[[5-(3-methyl-1-piperidinyl)-2-oxopentyl]thio]-6-(trifluoromethyl)-2(1H)-quinolinone], in assay [2], the “% MaxiK opening*” value is on record as 271%. For `CC1CCN(CCCC(=O)CSc2c(-c3cc(Cl)ccc3O)c3cc(C(F)(F)F)ccc3[nH]c2=O)CC1` [Example 66, 4-(5-Chloro-2-hydroxyphenyl)-3-[[5-(4-methyl-1-piperidinyl)-2-oxopentyl]thio]-6-(trifluoromethyl)-2(1H)-quinolinone], the “% MaxiK opening*” value in assay [2] was found to be 213%. `CN1CCC(N(C)CCCC(=O)CSc2c(-c3cc(Cl)ccc3O)c3cc(C(F)(F)F)ccc3[nH]c2=O)C1` (stereo not drawn) [Example 68, 4-(5-chloro-2-hydroxyphenyl)-3-[[5-[methyl(1-methyl-3-pyrrolidinyl)amino]-2-oxopentyl]thio]-6-(trifluoromethyl)-2(1H)-quinolinone]: the “% MaxiK opening*” value in assay [2] was found to be 226%. For the compound `O=C(CCCN1CCC(N2CCCCC2)CC1)CSc1c(-c2cc(Cl)ccc2O)c2cc(C(F)(F)F)ccc2[nH]c1=O` [Example 72, 3-[(5-[1,4′-Bipiperidin]-1′-yl-2-oxopentyl)thio]-4-(5-chloro-2-hydroxyphenyl)-6-(trifluoromethyl)-2(1H)-quinolinone], in assay [2], the “% MaxiK opening*” value is on record as 298%. Take `CN1CCN(C(=O)CSc2c(-c3cc(Cl)ccc3O)c3cc(C(F)(F)F)ccc3[nH]c2=O)CC1` [Example 84, 1-[[[4-(5-Chloro-2-hydroxyphenyl)-1,2-dihydro-2-oxo-6-(trifluoromethyl)-3-quinolinyl]thio]acetyl]-4-methylpiperazine]: the inhibition in assay [1] turned out to be 14.4%. Further, the “% MaxiK opening*” value in assay [2] came to 422%. For `O=C(CSc1c(-c2cc(Cl)ccc2O)c2cc(C(F)(F)F)ccc2[nH]c1=O)N1CCN(CCOCCO)CC1` [Example 98, 2-[2-[4-[[[4-(5-Chloro-2-hydroxyphenyl)-1,2-dihydro-2-oxo-6-(trifluoromethyl)-3-quinolinyl]thio]acetyl]-1-piperazinyl]ethoxy]ethanol], the inhibition in assay [1] was 17%. For the same compound, in assay [2], the “% MaxiK opening*” value is on record as 205%. For the same compound, the “% Inhibition of force (RSI strips)” value in assay [3] worked out at 9%. As for `O=C(CSc1c(-c2cc(Cl)ccc2O)c2cc(C(F)(F)F)ccc2[nH]c1=O)N1CCN(CCO)CC1` [Example 103, 4-[[[4-(5-Chloro-2-hydroxyphenyl)-1,2-dihydro-2-oxo-6-(trifluoromethyl)-3-quinolinyl]thio]acetyl]-1-piperazineethanol], the inhibition in assay [1] was found to be 22%. For the same compound, the “% MaxiK opening*” value in assay [2] worked out at 151%. For the same compound, in assay [3], the “% Inhibition of force (RSI strips)” value came to 22.5%. Consider `NC(=O)C1CCN(C(=O)CSc2c(-c3cc(Cl)ccc3O)c3cc(C(F)(F)F)ccc3[nH]c2=O)CC1` [Example 105, 1-[[[4-(5-Chloro-2-hydroxyphenyl)-1,2-dihydro-2-oxo-6-(trifluoromethyl)-3-quinolinyl]thio]acetyl]-4-piperidinecarboxamide], for which the inhibition in assay [1] was found to be 67%. Further, the “% MaxiK opening*” value in assay [2] was 203%. Also, the “% Inhibition of force (RSI strips)” value in assay [3] was determined as 62%. Turning to `CCOC(=O)CN1CCN(C(=O)CSc2c(-c3cc(Cl)ccc3O)c3cc(C(F)(F)F)ccc3[nH]c2=O)CC1` [Example 107, 4-[[[4-(5-Chloro-2-hydroxyphenyl)-1,2-dihydro-2-oxo-6-(trifluoromethyl)-3-quinolinyl]thio]acetyl]-1-piperazineacetic acid, ethyl ester], the inhibition in assay [1] worked out at 19%. In addition, the “% MaxiK opening*” value in assay [2] is 281%. In assay [3], the “% Inhibition of force (RSI strips)” value came out at 46%.

By inhibition is commonly meant the share of the control response that was lost under treatment.
